Earlier results as cited in US20050181044A1, “Compositions and methods for timed release of water-soluble nutritional supplements, green coffee extract” (priority 2004, published 2005).

Conditions: absorbed by the gastrointestinal tract, after first-pass metabolism in the liver

bioavailability: 26%
SMILES: N[C@H]1C(O)O[C@H](CO)[C@@H](O)[C@@H]1O (stereo partly shown) [Glucosamine]
